Values quoted from earlier work in patent US20160184212A1, “PHOTO-ACTIVATED HYDROGELS” (L'Oreal, priority 2014, published 2016).

- water solubility: water soluble
SMILES: O=C1c2ccccc2C(=O)c2cc(S(=O)(=O)[O-])ccc21.[Na+] [anthraquinone-2-sulfonic acid sodium salt]
